{
  "source": "patent US20140378408A1",
  "about": "“NUCLEOSIDE 5'-PHOSPHOROTHIOATE ANALOGUES AND USES THEREOF” (BAR-ILAN UNIVERSITY, an Israeli University, priority 2012, published 2014)",
  "key": {"human P2Y1-R": {"target": "T1, human P2Y1-R (Homo sapiens, UniProt P47900)", "T1 construct": "expressed in transfected cells; host or cells: 1321N1 astrocytoma cells", "T1 sequence (P47900 whole entry)": "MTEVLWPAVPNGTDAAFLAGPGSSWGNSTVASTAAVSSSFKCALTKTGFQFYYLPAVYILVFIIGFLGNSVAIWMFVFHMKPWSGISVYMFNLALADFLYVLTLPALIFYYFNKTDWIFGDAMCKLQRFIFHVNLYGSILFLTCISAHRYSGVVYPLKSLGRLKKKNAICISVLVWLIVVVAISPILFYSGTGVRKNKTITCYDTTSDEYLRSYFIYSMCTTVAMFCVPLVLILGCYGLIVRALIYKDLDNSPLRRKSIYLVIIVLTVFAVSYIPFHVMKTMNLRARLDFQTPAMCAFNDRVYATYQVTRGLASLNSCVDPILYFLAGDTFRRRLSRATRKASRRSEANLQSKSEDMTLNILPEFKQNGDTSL", "assay": "[Ca^2+]i response of 1321N1 astrocytoma cells expressing P2Y1-R GFP", "format": "cell-based", "details": "for EC50: agonist, read-out: EC50 at the P2Y1 receptor", "method": "GFP constructs of human P2Y2-R, P2Y1-R and P2Y11-R were stably expressed in 1321N1 astrocytoma cells, which lack endogenous expression of P2X- and P2Y-receptors. The respective cDNA of the receptor gene was cloned into a pEGFPN1 vector and after transfection, using FuGENE 6 Transfection Reagent (Roche Molecular Biochemicals, Mannheim, Germany), cells were selected with 0.5 mg/ml G418 (geneticine; Merck Chemicals, Darmstadt, Germany) and grown in DMEM supplemented with 10% serum (FCS), 100 U/ml penicillin and 100 U/ml streptomycin at 37° C. and 5% CO2. The expression and cell membrane localization of the respective P2Y receptors was confirmed through the analysis of the GFP fluorescence. The functionality of the expressed GFP-labeled receptor in cells was verified by recording a change of [Ca^2+]i after stimulation with the appropriate receptor agonist.\n1321N1 astrocytoma cells transfected with the respective plasmid for P2Y-R-GFP expression plated on coverslips (22 mm diameter) and grown to approximately 80% density, were incubated with 2 μM fura 2/AM and 0.02% pluronic acid in Na-HBS buffer (Hepes buffered saline: 145 mM NaCl, 5.4 mM KCl, 1.8 mM CaCl2, 1 mM MgCl2, 25 mM glucose, 20 mM Hepes/Tris pH 7.4) for 30 min at 37° C. The cells were superfused (1 ml/min, 37° C.) with different concentrations of nucleotide in Na-HBS buffer. The nucleotide-induced change of [Ca^2+] was monitored by detecting the fluorescence intensities with excitations at 340 nm and 380 nm. Only GFP-labeled cells were analyzed. Microsoft Excel (Microsoft Corp., Redmond, Wash., USA) and SigmaPlot (SPSS Inc., Chicago, Ill., USA) were used to derive the concentration-response curves and EC50 values from the average response amplitudes obtained in at least three independent experiments (Ecke et al., 2006; Ecke et al., 2008). Only cells with a clear GFP-signal and with the typical calcium response kinetics upon agonist pulse application were included in the data analysis. The nucleotide induced change of [Ca^2+]i was monitored by detecting the respective emission intensity of fura 2/AM at 510 nm with 340 nm and 380 nm excitations (Ubl et al., 1998). The average maximal amplitude of the responses and the respective standard errors were calculated from ratio of the fura 2/AM. The GFP-tagged P2Y receptors are suitable for pharmacological and physiological studies, as previously reported (Tulapurkar et al., 2004; Tulapurkar et al., 2006; Zylberg et al., 2007)."}, "TNAP": {"target": "T2, TNAP (Homo sapiens, UniProt P05186)", "T2 sequence (P05186 18-501)": "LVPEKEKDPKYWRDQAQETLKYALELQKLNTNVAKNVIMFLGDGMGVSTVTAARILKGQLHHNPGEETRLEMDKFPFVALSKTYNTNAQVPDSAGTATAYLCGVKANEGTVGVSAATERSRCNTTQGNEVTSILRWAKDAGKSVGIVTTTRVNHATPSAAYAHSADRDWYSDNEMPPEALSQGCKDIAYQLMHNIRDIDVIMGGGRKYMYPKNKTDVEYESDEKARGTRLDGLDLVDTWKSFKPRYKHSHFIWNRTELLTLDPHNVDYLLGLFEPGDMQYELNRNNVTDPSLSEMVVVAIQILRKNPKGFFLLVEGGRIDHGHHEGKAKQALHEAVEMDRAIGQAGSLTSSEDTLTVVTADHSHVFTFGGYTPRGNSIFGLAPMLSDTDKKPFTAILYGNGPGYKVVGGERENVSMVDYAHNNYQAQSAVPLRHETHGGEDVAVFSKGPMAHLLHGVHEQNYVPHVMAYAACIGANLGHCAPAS", "assay": "Inhibition of TNAP", "format": "biochemical"}, "[1]": {"assay": "Chemical stability (acid, base, air-oxidation) monitored by 31P-NMR", "format": "physicochemical", "details": "for stability: pD=1 as printed, two weeks", "method": "In order to study and evaluate the chemical stability of adenosine-5′-tetrathio bisphosphonate and di-adenosine 5′,5″-tetrathiobisphosphonate to basic and acidic condition, as well as to air-oxidation, kinetic measurements were performed by monitoring the changes in the percentage of these amalogues, using ^31P-NMR (FIGS. 16-18).\nThe evaluation of the stability of adenosine-5′-tetrathio bisphosphonate by ^31P-NMR was first conducted at pD=1.5 for four days. In the course of the experiment, new signals emerged in ^31P-NMR spectra at 104.4, 92.3, 89.2, 86.1, 67.8 ppm and the percentage of starting material was obtained from the ratio of integration between the starting material and the total peaks in the spectrum.\nNext, we studied the stability of adenosine-5′-tetrathio bisphosphonate under basic conditions, pD=11. […] After two weeks, the ^31P-NMR spectrum was identical to the starting material, without any indication of decomposition. We associate this with the repulsion between the negative charges of the tetrathio-bisphosphonate moiety in adenosine-5′-tetrathio bisphosphonate and OH^− ions. In addition, intramolecular nucleophilic attack and formation of disulfide bond are less likely to occur under these conditions.\nFurthermore, we tested the stability of adenosine-5′-tetrathio bisphosphonate under air-oxidizing conditions, by performing ^31P-NMR measurements in an open rotating NMR tube. […] The MS and ^31P-NMR analysis of the freeze-dried sample of adenosine-5′-tetrathio bisphosphonate after 3 days indicated the formation of an intramolecularly oxidized product."}},
  "data": [
    {"compound": "Nc1ncnc2c1ncn2[C@@H]1O[C@H](COP(=O)(O)CP(=O)(O)OP(O)(O)=S)[C@@H](O)[C@H]1O", "note": "[APCPP-γ-S, adenosine 5′-[Pγ-thio]-α,β-methylenetriphosphate]", "values": [
      {"measurement": "no activity at the P2Y1 receptor up to (concentration)", "setting": "human P2Y1-R", "value": "up to 10 μM"},
      {"measurement": "EC50", "setting": "human P2Y1-R", "value": "> 10", "unit": "µM"},
      {"measurement": "inhibition at 100 µM", "setting": "TNAP", "value": 8, "unit": "%"}
    ]},
    {"compound": "Nc1ncnc2c1ncn2[C@@H]1O[C@H](COP(O)(=S)OP(=O)(O)C(Cl)(Cl)P(=O)(O)O)[C@@H](O)[C@H]1O", "note": "(single isomer, unassigned) [APPCCl2P-α-S, adenosine 5′-[Pα-thio]-β,γ-(dichloromethylene)triphosphate]", "values": [
      {"measurement": "EC50", "setting": "human P2Y1-R", "value": "> 10", "unit": "µM"}
    ]},
    {"compound": "adenosine-5′-tetrathiobisphosphonate", "values": [
      {"measurement": "stability", "setting": "[1]", "value": "completely stable even after two weeks"},
      {"measurement": "stability under basic conditions", "setting": "[1]; pD=11, two weeks", "value": "highly stable"}
    ]},
    {"compound": "Nc1ncnc2c1ncn2[C@@H]1O[C@H](COP(O)(=S)OP(=O)(O)C(Cl)(Cl)P(=O)(O)O)[C@@H](O)[C@H]1O", "note": "(single isomer, unassigned; isomer a) [APPCCl2P-α-S (isomer A), adenosine 5′-[Pα-thio]-β,γ-(dichloromethylene)triphosphate]", "values": [
      {"measurement": "inhibition of TNAP", "setting": "TNAP; 100 μM", "value": 17, "unit": "%"}
    ]},
    {"compound": "di-adenosine-5′,5″-tetrathiobisphosphonate", "values": [
      {"measurement": "stability under air-oxidizing conditions", "setting": "[1]; open NMR tube, 3 days", "value": "highly stable"},
      {"measurement": "stability", "setting": "[1]", "value": "identical to that of adenosine 5′-tetrathiobisphosphonate"}
    ]}
  ]
}
